Experiments:
[1] = Plasma levels of terpene lactones, flavonol aglycones and PAC metabolites in T-maze mice; type: in vivo
Protocol: Targeted LC-MS/MS was used to quantify known and newly identified PAC metabolites (MRM transitions based on MS2 spectra of the untargeted analysis), as well as main ginkgo terpene lactones and flavonol aglycones in one single run in mouse plasma obtained from the pharmacological experiments (Supplementary Table S1).
The injection volume was 10 µL. […] Data processing was carried out with MassHunter Quantitative Analysis 10.1 software.
Plasma levels of terpene lactones (ginkgolide A, ginkgolide B, and bilobalide) and main ginkgo flavonol aglycones (quercetin, kaempferol, and isorhamnetin) were quantified in samples from animals used in the T-maze model. The detailed protocols for the analysis methods are included in the Supplementary Material.
Quantification of Acetylcholine in plasma […]
as described in the manufacturer’s instructions. […]
for 30 min at room temperature. […]
subtracted and of ACh concentration was calculated.
Flavonol aglycone quantification in plasma […]
methanol. […]
Data processing was conducted with mass hunter quantitative analysis 10.1.
Terpene lactone quantification in plasma […]
An Agilent 7890B GC (Agilent, Santa Clara, CA) coupled to an Agilent 7000D triple-quadrupole MS (Agilent, Santa Clara, CA) was used to analyze all samples. […] Target analytes were analyzed in negative ion chemical ionization with multiple reaction monitoring (MRM) mode using […]

[2] = Untargeted LC-HRMS metabolite profiling after oral PAC administration
Protocol: Animals to be sacrificed at 6 h (only test item-treated animals) were placed in metabolic cages (650-0100, Nalgene) for the collection of urine. Urine was stabilized with a final concentration of 4 mM NaN3 and stored at 4 °C. At 1 h and 6 h after the administration of the vehicle (1 h only) or test items (1 and 6 h), animals from the respective treatment groups were euthanized by CO2 inhalation. Blood was obtained by cardiac puncture and drawn in lithium-heparin-containing vials for the preparation of plasma by centrifugation (4,000 rpm, 4 °C, 10 min). Plasma was stored at −80 °C until bioanalytical analysis. Samples of the mixed intestinal content were obtained by scraping the small intestine, cecum, and large intestine into a 5-mL tube. Tubes were covered with gaseous N2 and stored at −80 °C.
The supernatant was evaporated to dryness and resuspended in 150 µL 1% FA in H2O/ACN (9/1, v/v) for analysis.
Rat intestinal content was first freeze-dried and finely crushed. […] Ethyl acetate extracts were evaporated to dryness and then resuspended in 300 µL 1% FA in H2O/ACN (9/1, v/v) for untargeted LC-HRMS analysis. Internal standards (listed in Supplementary Table S1) were spiked to both the sample types to ensure the performance of the measurements and monitor matrix effect.
Untargeted metabolite profiling was performed using a Vanquish UHPLC coupled with an Orbitrap Fusion Tribrid mass spectrometer (Thermo Fisher Scientific, Waltham, MA, United States of America) fitted with a HESI source. Chromatographic separation was performed on Waters Acquity HSS T3 1.8 µm Column (2.1 mm × 150 mm) (Waters Technologies, United States of America). The injection volume was 5 µL. The flow rate was set at 0.45 mL/min, and the column temperature was 40 °C. […] The gradient was as follows: 0% B from 0 to 2 min, 0%–10% B from 2 to 10 min, 10%–80% B from 10 to 25 min, 80%–100% B from 25 to 26 min, 100% B from 26 to 31 min, 100%–0% B from 31 to 32 min, and 3 min equilibration at 0% B.
Compound discoverer 3.1 (CD, Thermo Fisher Scientific, Waltham, MA, United States of America) was used for untargeted and novel feature detection. Raw files were processed with CD in the following steps: first, spectra were selected from raw data followed by retention time (RT) alignment with RT tolerance of 2 min and 5 ppm mass precision. Then, unknown compounds were detected and grouped with RT tolerance of 0.5 min and 5 ppm mass deviation. Missing values were filled. The composition was predicted based on the exact mass. The compounds were annotated with different types of databases. mzCloud was used to annotate compounds on the MS/MS level with a mass tolerance of 10 ppm. ChemSpider was used to annotate features based on the exact mass with a mass tolerance of 20 ppm.
Relevant features were identified by performing differential analysis between the vehicle and PAC treatment groups in Compound Discoverer software. […] Compound annotations of these features were checked for plausibility, and, if necessary, structural elucidation was manually continued.

[3] = system: scopolamine-induced working memory impairment; experiment: T-maze spontaneous alternation, scopolamine-induced memory impairment; type: in vivo; settings: mice, p.o. 1 h before T-maze; donepezil 0.3 mg/kg
Protocol: To impair short-term memory, mice were injected intraperitoneally (i.p.) with 1 mg/kg scopolamine (S1875, Sigma-Aldrich) or 0.9% NaCl (PZN01399062, Fresenius) 20 min prior to the experimental session. […] Switching from the right to the left arm of the T-maze or vice versa was calculated as correct alternations (%). The method is based on the study by [Deacon (2006)]. At 15 min after the start of the T-maze observation and once the 20 arm entry trials were finalized, animals were euthanized with CO2, and blood was collected by cardiac puncture for EDTA-plasma (Figure 1).
Data were analyzed using GraphPad Prism 10.1.2 (GraphPad Software, La Jolla, CA). Experimental groups were compared using one-way analysis of variance (ANOVA) or two-way ANOVA, followed by Dunnett’s post-test. Vehicle and each active treatment group were compared to the vehicle–scopolamine group (that received vehicle p.o., followed by i.p. injection of scopolamine). For calculation of dose–response curves, reversal of the scopolamine-induced amnesia was calculated. […] For ROS data, baseline ROS levels without treatment were set as 0% inhibition. […] Emax, and relative ID50 values for the T-maze in vivo studies were taken directly from the calculated dose–response curve data provided by Graph Pad Prism. […]

[4] = after oral PACs, c = detected in mice plasma

| Molecule | Compartment in which the metabolite was detected [2, 4] | Time points at which the metabolite was detected ([2]; after oral PACs) [h] | other results |
| --- | --- | --- | --- |
| O=C(O)c1cc(O)c(O)c(O)c1 [M01, Gallic acid] |  |  | plasma level versus PAC dose ([1]; plasma of PAC-treated mice, approximately 1 h 15 min after administration): dose-dependent increase; Time points at which the metabolite was detected ([2]; rat, in vivo, po): 6 h |
| Oc1cc(O)c2c(c1)O[C@H](c1cc(O)c(O)c(O)c1)[C@@H](O)C2 [M04, Gallocatechin] | Intestine |  |  |
| COc1cc(C=O)ccc1O[C@@H]1O[C@H](C(=O)O)[C@@H](O)[C@H](O)[C@H]1O [M07, Vanillin glucuronide] | Urine |  |  |
| O=C1CCC(Cc2cc(O)c(O)c(O)c2)O1 (stereo not shown) [M08, 5-(3',4',5'-trihydroxyphenyl)-gamma-Valerolactone] | Intestine | 6 |  |
| Oc1cc(O)c(CC(O)Cc2cc(O)c(O)c(O)c2)c(O)c1 (stereo not shown) [M09, 1-(3‘,4‘,5‘-trihydroxyphenyl)-3-(2‘‘,4‘‘,6‘‘-trihydroxyphenyl)propan-2-ol] | Intestine | 6 |  |
| Oc1cc(O)c2c(c1)O[C@H](c1cc(O)c(O)c(O)c1)[C@H](O)C2 [M10, Epigallocatechin] | Intestine |  |  |
| Oc1cc(O)c2c(c1)OC(c1ccc(O)c(O)c1)C(O)C2 (stereo not shown) [M11, Catechin] | Intestine | 6 |  |
| O=C1CCC(Cc2cc(O)cc(O)c2)O1 (stereo not shown) [M12, 5-(3‘,5‘-Dihydroxyphenyl)-γ-Valerolactone] | Intestine | 6 |  |
| O=C1CCC(Cc2ccc(O)c(O)c2)O1 (stereo not shown) [M13, 5-(3‘,4‘-Dihydroxyphenyl)-γ-Valerolactone] | Intestine | 6 |  |
| Oc1cc(O)c(CC(O)Cc2ccc(O)c(O)c2)c(O)c1 (stereo not shown) [M14, 1-(3′,4′-dihydroxyphenyl)-3-(2″,4″,6″-trihydroxyphenyl)propan-2-ol] | Intestine | 6 |  |
| O=C(O[C@@H]1Cc2c(O)cc(O)cc2O[C@@H]1c1cc(O)c(O)c(O)c1)c1cc(O)c(O)c(O)c1 [M15, Epigallocatechin gallate] | Intestine | 1 |  |
| COc1cc(C(O)C(O)/C(=C\C(=O)O)c2ccccc2)cc(O)c1O (stereo not shown) [M17, (2Z)-5-(3,4-dihydroxy-5-methoxyphenyl)-4,5-dihydroxy-3-phenylpent-2-enoic acid] | Intestine | 6 |  |
| O=C(O)[C@H]1O[C@@H](Oc2c(-c3cc(O)c(O)c(O)c3)oc3cc(O)cc(O)c3c2=O)[C@H](O)[C@@H](O)[C@@H]1O [M18, Myricetin 3-O-glucuronide] | Intestine | 1 |  |
| COc1cc(-c2oc3cc(O)cc(O)c3c(=O)c2O[C@@H]2O[C@H](C(=O)O)[C@@H](O)[C@H](O)[C@H]2O)cc(O)c1O [M19, 5'-O-methyl Myricetin 3-O-glucuronide] | Intestine | 1 |  |
| O=c1c(O)c(-c2cc(O)c(O)c(O)c2)oc2cc(O)cc(O)c12 [M20, Myricetin] |  |  | Compartment in which the metabolite was detected ([2]; rat, in vivo, po): Intestine; Time points at which the metabolite was detected ([2]; rat, in vivo, po): 1h, 6h |
| COc1cc(O)cc2oc(-c3cc(O)c(O)c(O)c3)c(O)c(=O)c12 [M21, 5-O-Methylmyricetin] | Urine | 6 |  |
| COc1cc2c(cc1OC)C(=O)C(CC1CCN(Cc3ccccc3)CC1)C2 (stereo not shown) [donepezil] |  |  | effect on scopolamine-induced impairment of correct alternations [3]: largely prevented |
| Gallic acid glucuronide [M03] | Urine |  |  |
| Gallic acid-O-sulphate [M02] | Plasmac |  | time of peak plasma level ([1]; mouse plasma, after PAC fraction 100 mg/kg p.o., peak area): 1 h |
| Methylgallic acid-O-sulphate [M06] | Urine |  |  |

Reference: PMC12597941 (Frontiers in Pharmacology, 2025)
